Test results: US20240424115A1, “LONG-ACTING INTERLEUKIN-15 RECEPTOR AGONISTS AND RELATED IMMUNOTHERAPEUTIC COMPOSITIONS AND METHODS” (Nektar Therapeutics, priority 2017, published 2024)
pKd: −log10 of the molar value.

Columns and labels:
IL-15Rα:Fc [1] = assay: SPR (BIAcore), compared with unmodified IL-15
IL-15Rα:Fc [2] = assay: SPR (BIAcore), IL-15Rα:Fc captured by immobilised goat anti-human Fc, KD from kd/ka
IL-15Rα:Fc [3] = assay: SPR (BIAcore), IL-15Rα:Fc captured by immobilised goat anti-human Fc, test article injected in 3-fold dilutions from 10 µM
[4] = Single dose PK study in rats (plasma concentration); format: in vivo; settings: rats, single i.v. 0.3, 0.15, 0.075 mg/kg or s.c. 0.15 mg/kg
Procedure: Following administration, blood was collected at days 1-7 post administration (with multiple samples collected over the first 24 hours following administration). […]

CD8 T cells = assay: Immunophenotypic markers in blood and spleen on Day 13 of the CT-26 lung metastasis study; format: in vivo, Balb/c mice
Procedure: Blood and spleenocytes were analyzed on Day 13 for the changes in the immunophenotypic markers using flow cytometry and marker antibodies conjugated with various fluorochromes. Conjugate 2 administered at 0.3, 1, and 3 mg/kg induced a dose-dependent increase of CD8 T cells 1.5, 2.5, and 3.3-fold versus vehicle in blood, respectively. Similar observations were made in spleen with increases of 1.3, 1.7, and 2.2-fold at 0.3, 1, and 3 mg/kg dose levels versus vehicle.

[5] = Single dose PK study in mice (plasma concentration); settings: C57BL/6 mice, single i.v. 0.3 mg/kg
Procedure: C57BL/6 mice (n=3/group) were administered a single intravenous dose of IL-15 (control) at 0.3 mg/kg) or of Conjugate 2 at a dose of 0.3 mg/kg. Following administration, blood samples were collected at various time points post administration (24 hours, 48 hours, 78 hours, 96 hours). […] Finally, at each time point, plasma concentration of drug was determined.
For PK analysis, Conjugate 1 was administered as a single intravenous dose at 0.3 mg/kg in balb/c mice (n=3). Following administration, mice were humanely sacrificed and plasma was collected 24, 48, 72, 96, 120 and 144 hours post treatment. From a separate study, mice were administered a single intravenous dose of IL-15 (0.5 mg/kg). Samples from these mice were collected at the indicated time points within 6 hours of treatment.
Balb/c mice (n=3/group) were administered a single intravenous dose of IL-15 (500 ug/kg) or of Conjugate 1 at 10, 30, 100, 300 and 1000 μg/kg. Blood samples were collected at the indicated time points post administration (conjugate 1:24, 48, 72, 96, 120, 144, 240 hours; IL-15 control: 0.03, 0.08, 0.25, 0.5, 1, 2, 4, 6, 8, hours) and plasma concentration of drug was determined.

CD4, CD8, and NK cells [6] = assay: In vivo IL-15 signaling (STAT5 phosphorylation in lymphocytes) in non-human primates; parameters: species or system cynomolgus monkeys; settings: cyno, single i.v. 0.5 mg/kg
Procedure: In the study, cynomolgus monkeys (cyno), one female and one male, were each intravenously administered a single dose of Conjugate 2 (0.5 mg/kg). A series of blood samples were taken from each animal both prior to treatment (day-6 and-1) and at multiple intervals following treatment for assessment by flow cytometry of STAT5 phosphorylation in various types of lymphocytes (CD4, CD8, and NK cells). Results are provided in FIGS. 9A (CD4), 9B (CD8), and 9C (NK).
(§1) Cynomolgus monkeys (n=3-4 males), were administered a single intravenous injection of Conjugate 1 at 0.003, 0.01, 0.1 mg/kg or a vehicle control. Blood samples were collected at the indicated time points pre and post dose (−5, −2, 1, 2, 3, 4, 5, 6, 7, 10, 14, 17 days) and subjected to flow cytometric analysis to examine pharmacodynamic effects within lymphocyte populations. Proliferation (% Ki-67) and JAK/STAT signaling (% pSTAT5) for NK cells, CD8 T cells, and CD4 T cells were examined, with the results shown in FIGS. 45A-C and FIGS. 46A-C, respectively.

CD4, CD8, and NK cells [7] = assay: In vivo IL-15 signaling (STAT5 phosphorylation in lymphocytes) in mice; settings: C57BL/6 mice, single i.v. 0.3 mg/kg
Text: Conventional approaches, such as those involving radiolabeling a compound, administering the compound in vivo, and determining its clearance, can be used to assess whether a compound proposed to be a long-acting, IL-15 R agonist is “long-acting” (i.e., has a clearance that is longer than that of IL-15 administered in the same in vivo system). For the purposes herein, the long acting nature of a long-acting IL-15 R agonist may be, and is typically determined using flow cytometry to measure STAT5 phosphorylation in lymphocytes at various time points after administration of the agonist to be evaluated in mice. As a reference, the signal is lost by around 24 hours with IL-15, but is sustained for a period greater than that for a long-acting IL-15 agonist.
Mice were dosed as described in Example 6 above to assess in-vivo signaling as assessed by degree of STAT5 phosphorylation. Degree of STAT5 phosphorylation in various lymphocytes (CD4, CD8, and NK cells) was assessed by staining whole blood for leukocyte surface markers and pSTAT5, followed by measurement by flow cytometry. Results are shown in FIGS. 8A and 8 B for IL-15 and for Conjugate 2, respectively.
[PK methods previously described herein].
STAT5 phosphorylation in CD4 T cells was determined by using a CD3+CD4+CD8-pSTAT5+ marker combination. FIG. 43 is a plot of pSTAT5 phosphorylation percent positivity within CD4 T cells over time (at 0.25, 1, 6, 24, 48, 72, 96 and 120 hours post administration) at a dose of 0.03 mg/kg (blue, solid squares) or 0.3 mg/kg (orange, solid circles). The vehicle over time (black) and pre-dose (open circles) levels are also shown.

[8] = tested on: NK cells, CD8 T cells, CD4 T cells; assay: In vivo PD study in non-human primates: lymphocyte cell numbers and proliferation; parameters: species or system cynomolgus monkeys; settings: cyno, single i.v. 500 μg/kg
Procedure: In the study, cynomolgus monkeys, one female and one male, were administered 500 μg/kg of Conjugate 2 intravenously. A series of blood samples were taken from each animal before treatment (day-6 and -1) and at multiple intervals following single dose treatment for assessment by flow cytometry of lymphocyte cell numbers (NK cells, CD8 T-cells, etc.) and activation.
NK cell counts were determined to assess the ability of exemplary Conjugate 2 to induce sustained NK cell proliferation in non-human primates; results are shown in FIGS. 16A and 16B. NK cells and their proliferation in blood from cynomolgus monkey were identified by flow cytometry. Acquisition and analysis of NK cells (CD45+ CD3− CD16+) and their proliferation status (CD45+CD3−CD16+ Ki67+) were conducted using BD FACS DIVA software. Absolute values for NK cells and proliferating NK cells were used to calculate % Ki67 positivity within the NK population. Pre and post-treatment values were plotted using Prism.
CD8 T cell counts were also determined as illustrated in FIG. 17 for each animal from pre-dose to 14 days post-administration. Specifically, CD8 T cells were defined as CD45+CD3+CD4−CD8+. Blood from the monkeys was also subject to immunophenotyping as previously described. In monkey, CD8 T cells increased in a sustained manner, an effect lasting for at least 10 days. This plot further exemplifies the ability of an exemplary long acting IL-15 receptor agonist, Conjugate 2, to induce proliferation and sustained increases in numbers of CD8 T-cells post-administration.
In monkey, CD8 TEM cells were defined as CD45+CD3+CD4−CD8+CD45Ra−CD197− and CD8 Tcm were defined as CD45+CD3+CD4−CD8+CD45Ra−CD197+. Immunophenotyping was conducted by flow cytometry with sample acquisition on DIVA software and data analysis on Flowjo software. Graphs were plotted using Prism. […] The figures indicate that both CD8 effector and central memory T cell populations proliferate in response to exemplary Conjugate 2.
In this study, cynomolgus monkeys (cyno), one female and one male, were each intravenously administered a single dose of Conjugate 1 (0.1 mg/kg). A series of blood samples were taken from each animal over a 14-day time course and subjected to flow cytometry analysis of various lymphocytes (CD8 T cells, Ki-67 percent positivity within total CD8, CD8 central memory T cells (TCM) and CD8 effector memory T cells (Tem), NK cells and Ki-67 percent positivity of NK cells).
as §1
In cynomolgus monkey, CD8 naïve and memory subpopulations were defined by CD45Ra, CD197 and CD95. […] Within the CD8 Tem, […] and Tscm populations, Conjugate 1 induced robust % Ki-67 expression in a dose dependent manner with detectable increases in proliferation marker positivity starting as early as day 2, reaching a maximum at day 5 and returning to baseline between days 10-14. The Ki-67 expression and kinetics within the CD8 populations support the sustained increase in CD8 T cell numbers shown in Example 27 and FIGS. 47A-D.

CT-26 cells = assay: CT-26 lung metastasis model
Procedure: At day 0, 6-8 week-old female Balb/c mice were inoculated with 1×10^5 mouse CT-26 cells by tail vein injection. On day 1, post 24 h of CT-26 cells being administered, mice were divided into ten groups. […] Each group was assigned one intervention as follows: vehicle, phosphate buffered saline (Group A); native IL-15 alone (Group B); Conjugate 2 at a dose of 0.03 mg/kg (Group C); Conjugate 2 at a dose of 0.1 mg/kg (Group D); Conjugate 2 at a dose of 0.3 mg/kg (Group E); Conjugate 2 at a dose of 1.0 mg/kg (Group F); Conjugate 2 at a dose of 3.0 mg/kg (Group G); for Conjugate 1: vehicle, phosphate buffered saline (Group H); Conjugate 1 at a dose of 0.03 mg/kg (Group I) and Conjugate 1 at a dose of 0.3 mg/kg (Group J). Animals were dosed at days 1, 5, and 10.
Post 13 days from the date of CT-26 tumor cells administration, mice were anesthetized, and blood and spleen cells were collected for further analysis of immunophenotype markers, while lungs were fixed for 24-48 h in Bouins solution containing picric acid and formaldehyde.
The number of lung tumor nodules were counted under a dissection per each lung and mean of lung nodules for each group was determined. The statistical significance was also obtained between the vehicle group vs intervention groups using unpaired students t test.
Balb/c mice received tail vein injection of 1×10^5 CT-26 colorectal carcinoma cells. The following day, mice (n=9/group) were treated weekly, twice, with Conjugate 1 (0.03 or 0.3 mg/kg) or vehicle control. Five days after the second injection, mice were humanely sacrificed and lung nodules were counted.
CT-26 mice (n=7-11/group) were injected with anti-asialo GM1 to deplete NK cells or two different controls (lgG or PBS), then injected with 1×10^5 CT-26 tumor cells. Mice were then treated with Conjugate 2 at 0.3 mg/kg dosed on days 1, 5 and 10 post tumor cell injection or vehicle control. Mice were sacrificed and lung nodules were counted three days after the last day of treatment.

IL-15Rα:Fc, sequence (Q13261 31-205): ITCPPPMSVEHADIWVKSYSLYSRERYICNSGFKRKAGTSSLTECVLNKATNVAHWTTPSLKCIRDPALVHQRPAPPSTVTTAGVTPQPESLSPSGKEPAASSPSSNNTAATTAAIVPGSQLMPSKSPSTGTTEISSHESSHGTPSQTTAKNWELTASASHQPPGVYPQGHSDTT

mono-mPEG-SBA40K-IL-15 (Conjugate 1) (from UniProt P40933 49-162) (ligand)
percent of the alpha receptor affinity of IL-15 retained (IL-15Rα:Fc [1]): 80%
pKd (IL-15Rα:Fc [2]): 9.68
koff (IL-15Rα:Fc [3]): 0.000103 s⁻¹
kon (IL-15Rα:Fc [3]): 492000 M⁻¹ s⁻¹

N-(2-methoxyPEG-ethyl)-7-(4-((2-methoxyPEG-ethyl) amino)-4-oxobutyl)-9-ethyl-9 H-fluorene-4-carboxamide carbamate-IL-15 [Conjugate 2]
exposure to drug [4]: sustained and dose-proportional exposure to drug
increase of Bcl-2+MFI in CD8 (CD8 T cells; blood and spleen): ≤ 1.5 fold
increase of CD8 T cells versus vehicle (CD8 T cells; blood, 0.3 mg/kg): 1.5 fold
increase of CD8 T cells versus vehicle (CD8 T cells; blood, 1 mg/kg): 2.5 fold
increase of CD8 T cells versus vehicle (CD8 T cells; blood, 3 mg/kg): 3.3 fold
CD8 T cell proliferation (Ki-67) change compared to vehicle (CD8 T cells; blood, high dose 3 mg/kg): 5.3 fold
CD8 T cell proliferation (Ki-67) change compared to vehicle (CD8 T cells; blood, low dose 0.3 mg/kg): 1.7 fold
increase of CD8 T cells versus vehicle (CD8 T cells; spleen, 0.3 mg/kg): 1.3 fold
increase of CD8 T cells versus vehicle (CD8 T cells; spleen, 1 mg/kg): 1.7 fold
increase of CD8 T cells versus vehicle (CD8 T cells; spleen, 3 mg/kg): 2.2 fold
CD8 T cell proliferation (Ki-67) change compared to vehicle (CD8 T cells; spleen, high dose 3 mg/kg): 6.9 fold
CD8 T cell proliferation (Ki-67) change compared to vehicle (CD8 T cells; spleen, low dose 0.3 mg/kg): 2.5 fold
CD8 T cell proliferation (Ki-67) change compared to vehicle (CD8 T cells; spleen, mid dose 1 mg/kg): 5.7 fold
T1/2 [5]: 20 to 30 h
time with measurable concentrations in plasma [5]: greater than 1 week
return of STAT5 phosphorylation to near pre-dose levels (CD4, CD8, and NK cells [6]): 5 to 10 days
duration of in-vivo STAT5 phosphorylation activity in NK and CD8 cells (CD4, CD8, and NK cells [7]): > 72 h
CD8 TEM and TCM cell counts [8]: induces a significant and sustained increase in CD8 effector and central memory T cell populations
NK cell proliferation (Ki67, cell counts) [8]: effective to induce sustained NK cell proliferation
duration of CD8 T cell increase [8]: at least 10 days
efficacy (lung nodule inhibition) after NK cell depletion (CT-26 cells; 0.3 mg/kg days 1, 5, 10, anti-asialo GM1): abolished when mice lacked NK cells
reduction in lung metastases in comparison to vehicle (CT-26 cells; Example 13, i.v. days 1, 5, 10, dose not stated): 65%
